Results taken from patent US10047386B2, “Biomarker for abdominal aortic aneurysm” (THE REGENTS OF THE UNIVERSITY OF CALIFORNIA, priority 2011, dated 2018).
Several values for one entry are separate records, joined by “and”; a condition that tells them apart may be missing. Identical values can stand only once. Entries after “also recorded” stand apart in the source; their conditions may differ.

Key:
Assay type in all cases: in vivo
hph-1 mice [1] = experiment: AAA formation in Ang II-infused hph-1 mice; conditions: for AAA total morbidity / incidence rate: Ang II 0.7 mg/kg per day for 14 days, FA 15 mg/kg per day oral where given
Description: (§1) The hph-1 mice (originally in CBA background)^19 were backcrossed with C57BL6 mice for >10 generations and genotyped based on a protocol by Khoo et al.^21 Only homozygote hph-1 mice in C57BL6 background were used for experiments. WT and hph-1 male mice at 24 weeks of age were infused with Ang II (0.7 mg/kg per day) using subcutaneously implanted osmotic pumps (Durect Corp). During the 14-day infusion, blood pressure was monitored by telemetry method. Wireless blood pressure probes were implanted into the animals 10 days before the implantation of the osmotic pumps. The catheter of the blood pressure probe was inserted into the left carotid artery, whereas the body of the probe was inserted into the right flank.
(§2) WT and hph-1 mice were started on continuous oral administration of FA (15 mg/kg per day) or tail vein transfection of DHFR expression vector (pcDNA3.1-DHFR)5 in lipid-based reagent from Altogen Biosystems every other day for 14 days, starting 2 days before Ang II infusion. The mice were monitored twice per day during the infusion period of 2 weeks, and aortas were harvested for assessment of AAA formation, endothelial DHFR expression, and eNOS uncoupling activity by day 14. Animals that died suddenly during the infusion period of 14 days were inspected for aneurysm immediately and aortas were freshly harvested for experiments.

apoE null mice = experiment: AAA formation in Ang II-infused apoE null mice; conditions: for number of mice with AAA / number of mice with No AAA: Ang II 4 weeks, FA 15 mg/kg/day where given
Description: Animals were fed normal chow or customized FA chew (15 mg/kg/day) two days prior to Ang II infusion and throughout the study period of 4 weeks. Of note, 24 out of 26 Ang II infused apoE null mice (92.3%) on normal chow developed AAA (FIG. 11). […] L-NAME sensitive superoxide production, which reflects eNOS uncoupling activity, was also measured.
For this study, apoE null male animals were infused with Ang II for 4 weeks, which has been shown in literature to reliably produce AAA in 90-100% of the animals. One group of animals is fed food mixed with FA. AAA development is monitored using a noninvasive ultrasound technique during the infusion period. At the end of the four weeks, aortas from the animals were harvested and histology or biochemical assays were performed to assess for various markers of AAA and eNOS functional state.
Animals were either given regular chow, or food pellets made in house mixed with FA (15 mg/kg/day). Aorta are carefully dissected and cleaned of connective tissue from the animals after euthanasia. Blood samples (˜0.1 mL) are collected from each animal on a weekly basis and after euthanasia.
The development of AAA is monitored noninvasively via an ultrasound imaging system (Vevo 770, Visualsonics) during the Ang II-infusion period. The abdominal aortas were imaged transversely and identified via Doppler measurements for the presence of a major pulsatile flow. […] Aorta size is later measured offline from images captured. Two measurements per week after Ang II infusion, as well as two measurements before the Ang II infusion (for control) are made. AAA is defined as an enlargement of the abdominal aorta by at least 50%, and later confirmed at the experimental end point. The AAA incidence for this model was also assessed by direct inspection of abdominal aorta at time of harvest, or post-mortem in those died of sudden rupture.

WT mice [2] = experiment: Mean blood pressure by intracarotid telemetry, WT mice
Description: as §1
(§3) Animals were given 1 week to recover from the surgery. After this period, blood pressure was measured for 3 days to obtain a baseline. The osmotic pumps were then implanted on day 10 after surgery. Measurements were made daily from 9:00 AM to 4:00 PM at a 250-Hz sampling rate. Average blood pressure was calculated daily as the average of the entire recording period. The use of animals and experimental procedures were approved by the institutional animal care and usage committee at the University of California Los Angeles. […]

hph-1 mice [3] = experiment: Mean blood pressure by intracarotid telemetry, hph-1 mice
Description: as §1, §3

aortic H4B [4] = experiment: HPLC determination of aortic H4B content, hph-1 mice; conditions: for aortic levels of H4B: hph-1 mice, Example 3, n=3 each (vehicle 1.87±0.25)
Description: (§4) Animals were given 1 week to recover from the surgery. After this period, blood pressure was measured for 3 days to obtain a baseline. The osmotic pumps were then implanted on day 10 after surgery. Measurements were made daily from 9:00 AM to 4:00 PM at a 250-Hz sampling rate. Average blood pressure was calculated daily as the average of the entire recording period. The use of animals and experimental procedures were approved by the institutional animal care and usage committee at the University of California Los Angeles. Electron spin resonance determination of aortic NO and superoxide production, high-performance liquid chromatography determination of aortic H4B content, and Western blot determination of endothelial DHFR expression were performed as published previously.^1,2,5
(§5) H4B levels are measured using a HPLC system as previously described. Briefly, aorta samples are lysed with trichloroacetic acid and DTT, subjected to acidic or alkalytic oxidation, and H4B and its oxidized species are detected with a fluorescent detector after separation in the HPLC system (Shimadzu).

aortic H4B [5] = experiment: HPLC determination of aortic H4B content, WT mice; conditions: Ang II-infused WT mice, FA 15 mg/kg per day
Description: as §4, §5

aortic H4B [6] = experiment: HPLC determination of aortic H4B, apoE null mice; conditions: n=6 (vehicle 4.86±0.32)
Description: as §5
(§6) Also investigated was whether FA supplementation as used above leads to improved H4B availability both in the circulation and in the vascular tissues. Ang II-infused apoE null or hph-1 mice are treated with diets supplemented with FA, and circulating and aortic H4B contents are determined using HPLC at different time points of 1, 2, 3 and 4 wks. […] It is established that it takes 3-4 weeks for AAA to develop in Ang II-infused apoE null mice, and at these time points, circulating and tissues H4B levels were indeed decreased, but restored by FA treatment (FIGS. 9-10).

plasma H4B [7] = experiment: HPLC determination of plasma H4B, apoE null mice; conditions: n=6 each (vehicle 3.31±0.13)
Description: as §5
(§7) Blood samples are collected from Ang II-infused apoE null and hph-1 animals. Approximately 0.1 mL of blood is collected from each animal from the tail vein on a weekly basis. HPLC is used to determine the concentration of H4B in the blood samples as outlined above.
as §6

plasma H4B [8] = experiment: HPLC determination of plasma H4B, hph-1 mice; conditions: n=3 each (vehicle 1.37±0.05)
Description: as §5, §7, §6

hph-1 mice [9] = experiment: Ultrasound detection of abdominal aorta size, hph-1 mice; conditions: Ang II infusion, day 0 values 0.37 (Ang II) and 0.39 (FA)
Description: (§8) Animals were anesthetized with isoflurane and placed on a temperature-controlled table, which also measures ECG for heart rate. Isoflurane levels were adjusted throughout the experiment to maintain heart rate between 400 and 500 bpm while keeping the animal sufficiently anesthetized. Hair was removed from the abdomen using a hair removal cream, and preheated ultrasound transmission gel was applied onto the abdomen area. An ultrasound probe (Velvo 770, Visualsonics) was placed on the gel to visualize aorta transversely. The aorta was identified using Doppler measurement for the presence of pulsatile flow. […] Images were recorded and saved onto a PC computer for offline area analysis. Hematoxylin-eosin and Verhoeff-Van Gieson stainings were conducted following standard histological protocols.

endothelial DHFR = experiment: Western blot of endothelial DHFR expression in aortic preparations, hph-1 mice; conditions: Ang II infusion 14 days
Description: as §4
On harvest, whole aorta was cut open longitudinally and then digested with collagenase (0.6 mg/mL) at 37° C. for 20 minutes before gentle removal of endothelial cells with a cotton applicator. The supernatant containing endothelial cells was centrifuged and lysed for Western blot analysis.

hph-1 mice [10] = experiment: Aortic histology (H&E, VVG, macrophage staining), hph-1 mice; conditions: for infiltrating macrophages: Ang II-infused mice
Description: as §8
(§9) Formalin-fixed and paraffin-embedded tissue were sectioned at 5 μm. Paraffin was removed by washing with xylene and then rehydrated with descending concentrations of ethanol. Antigen retrieval was performed by immersing the sections in an antigen retrieval buffer ([…] of citric acid, 0.01% Tween 20) at 98.5° C. for 20 minutes. Sections were washed in PBS plus 0.1% triton (PBS-T) and then blocked with 2% normal goat serum in PBS-T at room temperature for 3 hours. Sections were then incubated with primary antibody (Mac-3, BD Pharmingen, 2%, in PBS-T) overnight at 4° C. After washing with PBS-T for 1 hour, sections were incubated with secondary antibody (Alexa fluor 488, 2% in PBS-T) for 2 hours at room temperature in the dark. After washing with PBS-T for 1 hour, sections were dehydrated with ascending grades of ethanol and then xylene. Sections were mounted with Permount medium and pictures taken with a confocal microscope (Leica, SP1 inverted). MMP activity assays were performed as published previously.^22

MMP2 [11] = experiment: MMP activity zymography of aortas, MMP2, hph-1 mice
Description: as §9
(§10) An increase in MMP activity is one of the hallmarks of AAA development. Therefore, MMP activity can be measured using a zymography technique described in detail in other studies. Briefly, aortic lysates are loaded to gelatin infused SDS-PAGE gels. After electrophoresis, gelatin in the gel is digested by MMP in the loaded samples by incubating the gel in 37° C. overnight. […]

MMP9 = experiment: MMP activity zymography of aortas, MMP9, hph-1 mice
Description: as §9, §10

MMP2 [12] = experiment: MMP activity zymography of aortas, MMP2, WT mice
Description: as §9, §10

WT mice [13] = experiment: AAA formation in Ang II-infused wild-type mice; conditions: Ang II 0.7 mg/kg per day, 14 days
Description: as §1, §2

WT mice [14] = experiment: Ultrasound detection of abdominal aorta size, WT mice; conditions: Ang II infusion, day 0 value 0.53
Description: as §8

eNOS [15] = experiment: ESR aortic superoxide production with or without L-NAME (eNOS uncoupling), apoE null mice
Description: L-NAME sensitive superoxide production, which reflects eNOS uncoupling activity, was also measured.
The functional state of eNOS is assessed in lysed aortic samples by measuring superoxide production in the presence or absence of L-NAME using electron spin resonance (ESR, from Bruker). Under normal conditions where eNOS is coupled, the addition of the eNOS inhibitor L-NAME will increase superoxide production, as eNOS is normally producing NO to scavenge superoxide. However, under eNOS uncoupled conditions where eNOS is producing superoxide, the addition of L-NAME will decrease superoxide production. This direction of change in superoxide production will allow for an accurate assessment of eNOS function in the aortas of the animals.

eNOS [16] = experiment: ESR aortic superoxide production with or without L-NAME (eNOS uncoupling), hph-1 mice; conditions: Ang II-infused hph-1 mice
Description: as §4
(§11) The mice were monitored twice per day during the infusion period of 2 weeks, and aortas were harvested for assessment of AAA formation, endothelial DHFR expression, and eNOS uncoupling activity by day 14. Animals that died suddenly during the infusion period of 14 days were inspected for aneurysm immediately and aortas were freshly harvested for experiments.

eNOS [17] = experiment: ESR aortic superoxide production with or without L-NAME (eNOS uncoupling), WT mice; conditions: Ang II-infused WT mice
Description: as §4, §11

[18] = Ang II-infused hph-1 mice, FA 15 mg/kg per day

Molecule: Nc1nc2ncc(CNc3ccc(C(=O)N[C@@H](CCC(=O)O)C(=O)O)cc3)nc2c(=O)[nH]1 [FA, folic acid]
- AAA formation (hph-1 mice [1]; Ang II-infused hph-1 mice, 14 days, oral FA 15 mg/kg per day or DHFR vector tail vein transfection every other day): completely prevented and none
- AAA total morbidity / incidence rate (hph-1 mice [1]; hph-1 mice): 0%
- AAA incidence (apoE null mice; Ang II 1000 ng/kg/min for 4 weeks, FA 15 mg/kg/day in food where given): 16.7% and 17%
- number of mice with AAA (apoE null mice): 4
- number of mice with No AAA (apoE null mice): 20
- effect on Ang II-induced hypertension (WT mice [2]; Ang II-infused WT mice, FA 15 mg/kg per day): highly effective in attenuating
- effect on MBP decline (hph-1 mice [3]; [18]): prevented the decline
- aortic H4B levels (aortic H4B [4]; [18]): even higher than baseline
- aortic levels of H4B (aortic H4B [4]): 3.00 ± 0.64 pmol/mg
- aortic H4B levels (aortic H4B [5]): even higher than baseline
- aortic H4B levels (aortic H4B [6]): 6.60 ± 0.62 pmol/mg
- plasma H4B (plasma H4B [7]): 5.80 ± 0.30 pmol/mg
- plasma levels of H4B (plasma H4B [8]): 2.36 ± 0.25 pmol/mg
- abdominal aorta cross-sectional area at day 14 (hph-1 mice [9]): 0.52 mm^2
- endothelial DHFR expression (endothelial DHFR): restored
- medial degradation and adventitial inflammatory cell recruitment, H&E staining (hph-1 mice [10]; Ang II-infused hph-1 mice): abrogated
- medial elastin flattening and rarefaction of elastin fibers, VVG staining (hph-1 mice [10]; Ang II-infused hph-1 mice): attenuated
- infiltrating macrophages (hph-1 mice [10]): completely attenuated
- Ang II-induced MMP2 activation (MMP2 [11]): attenuated
- Ang II-induced MMP9 activation (MMP9): attenuated
- Ang II-induced MMP2 activation (MMP2 [12]): inhibited

Molecule: angiotensin II (DRVYIHPF; Angiotensin-2; UniProt P11859 25-32, looked up) [Ang II, angiotensin II infused by osmotic pump to induce AAA and eNOS uncoupling in mice]
- AAA total morbidity / incidence rate (hph-1 mice [1]; hph-1 mice): 79%
- no-AAA rate (hph-1 mice [1]; hph-1 mice, Ang II 0.7 mg/kg per day, 14 days): 21%
- died or developed AAA (WT mice [13]): none
- number of mice with AAA (apoE null mice): 24
- number of mice with No AAA (apoE null mice): 2
- mean blood pressure (MBP) (WT mice [2]; WT mice, day 6 of Ang II infusion (baseline 101±3)): 140±2 mm Hg
- mean blood pressure (MBP) (hph-1 mice [3]; hph-1 mice, day 6 of Ang II infusion (baseline 112±3)): 140±2 mm Hg
- aortic levels of H4B (aortic H4B [4]): 0.99 ± 0.11 pmol/mg
- aortic H4B levels (aortic H4B [6]): 2.72 ± 0.26 pmol/mg
- plasma H4B (plasma H4B [7]): 1.87 ± 0.11 pmol/mg
- plasma levels of H4B (plasma H4B [8]): 0.92 ± 0.06 pmol/mg
- abdominal aorta cross-sectional area at day 14 (hph-1 mice [9]): 1.96 mm^2
- abdominal aorta cross-sectional area at day 14 (WT mice [14]): 0.66 mm^2
- L-NAME sensitive superoxide production (eNOS uncoupling activity), fold (eNOS [15]; Ang II 4 weeks (baseline 1.17±0.06)): 2.22±0.2 fold
- L-NAME-sensitive superoxide production (eNOS [15]; Ang II 4 weeks, FA 15 mg/kg/day where given): markedly increased
- aortic superoxide production, fold increase (eNOS [15]; Ang II 4 weeks, n=6 each): 2.67±0.15 fold
- eNOS uncoupling / L-NAME-sensitive O2•− production (eNOS [16]): further uncoupled; also recorded: progressive uncoupling
- eNOS uncoupling / L-NAME-sensitive O2•− production (eNOS [17]): remained steady
- endothelial DHFR expression (endothelial DHFR): further reduced
- infiltrating macrophages (hph-1 mice [10]): dramatically upregulated
